In this assay the test system is CD2F1 mice, L1210 leukemia ip, survival T/C. The assay is described as follows: NCI In Vivo Anticancer Drug Screen. Data for tumor model L1210 Leukemia (intraperitoneal) in CD2F1 (CDF1) mice. To be noted: endpoint: mean survival time, higher = longer survival. Summed up: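 Antitumor effect is scored in animals hosting a serially transplanted tumor. Values compare compound-dosed animals against vehicle-only controls as a simple quotient.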

[1] abbreviates: dose: 100.0 mg/kg/injection, schedule: Q04DX003 (ip), vehicle: saline with Tween-80.
The mark [2] stands for this setting: dose: 200.0 mg/kg/injection, schedule: Q04DX003 (ip), vehicle: saline with Tween-80.
[3] abbreviates: dose: 400.0 mg/kg/injection, schedule: Q04DX003 (ip), vehicle: saline with Tween-80.
Where [4] appears, read: dose: 100.0 mg/kg/injection, schedule: Q01DX009 (ip), vehicle: Klucel (hydroxypropylcellulose) (HPC).
Setting [5] is: dose: 200.0 mg/kg/injection, schedule: Q01DX009 (ip), vehicle: Klucel (hydroxypropylcellulose) (HPC).
Where [6] appears, read: dose: 400.0 mg/kg/injection, schedule: Q01DX009 (ip), vehicle: Klucel (hydroxypropylcellulose) (HPC).
Setting [7] is: dose: 100.0 mg/kg/injection, schedule: Q01DX001 (ip), vehicle: saline with Tween-80.
The mark [8] stands for this setting: dose: 200.0 mg/kg/injection, schedule: Q01DX001 (ip), vehicle: saline with Tween-80.
Setting [9] is: dose: 400.0 mg/kg/injection, schedule: Q01DX001 (ip), vehicle: saline with Tween-80.
Where [10] appears, read: dose: 12.5 mg/kg/injection, schedule: Q01DX009 (ip), vehicle: saline with Tween-80.

“And” between values parts separate entries of the source, which are not always exact repeats. Identical values can stand only once. Inconclusive results and toxic doses are left out.

Consider `O.[Cl][Pt].[S-]CCN1CCCCC1`, for which the T/C reads like this: (dose: 12.5 mg/kg/injection, schedule: Q04DX003 (ip), vehicle: distilled water + Tween-80) 96 % of control; (dose: 25.0 mg/kg/injection, schedule: Q04DX003 (ip), vehicle: distilled water + Tween-80) 100 % of control; (dose: 50.0 mg/kg/injection, schedule: Q04DX003 (ip), vehicle: distilled water + Tween-80) 98 % of control; (dose: 100.0 mg/kg/injection, schedule: Q04DX003 (ip), vehicle: distilled water + Tween-80) 90 % of control; (dose: 200.0 mg/kg/injection, schedule: Q04DX003 (ip), vehicle: distilled water + Tween-80) 93 % of control.
As for `COc1ccc(CCN(C=O)CCc2ccc(OC)c(OC)c2)cc1OC`, the T/C is, setting by setting: (dose: 12.5 mg/kg/injection, schedule: Q01DX009 (ip), vehicle: other) 98 % of control; (dose: 25.0 mg/kg/injection, schedule: Q01DX009 (ip), vehicle: other) 101 % of control; (dose: 50.0 mg/kg/injection, schedule: Q01DX009 (ip), vehicle: other) 93 % of control; (dose: 100.0 mg/kg/injection, schedule: Q01DX009 (ip), vehicle: other) 103 % of control; (dose: 200.0 mg/kg/injection, schedule: Q01DX009 (ip), vehicle: other) 103 % of control.
In the case of `CN1C(=O)c2ccccc2C1(/N=C/c1ccccc1)c1ccccc1` (stereo not given), the T/C was 96 % of control under setting [1], 96 % of control under setting [2] and 96 % of control under setting [3].
`C[N+](C)(C)Cc1ccccc1/C(=N\O)c1ccccc1`: the T/C is 109 % of control (dose: 5.0 mg/kg/injection, schedule: Q01DX009 (ip), vehicle: saline); 116 % of control (dose: 5.0 mg/kg/injection, schedule: Q04DX003 (ip), vehicle: saline); 100 % of control (dose: 10.0 mg/kg/injection, schedule: Q01DX009 (ip), vehicle: saline); 98 % of control (dose: 10.0 mg/kg/injection, schedule: Q04DX003 (ip), vehicle: saline); 91 % of control (dose: 20.0 mg/kg/injection, schedule: Q01DX009 (ip), vehicle: saline); 89 % of control (dose: 20.0 mg/kg/injection, schedule: Q04DX003 (ip), vehicle: saline).
Take `C=CC(=O)NC(C)(C)CC(C)(C)C`: the T/C is, setting by setting: (dose: 100.0 mg/kg/injection, schedule: Q01DX009 (ip), vehicle: saline with Tween-80) 105 % of control; under setting [1], 92 % of control; under setting [2], 102 % of control; under setting [3], 96 % of control.
As to `O=C1OC(=O)N2N=CC=CC12` (stereo not given), the T/C by setting is: (dose: 100.0 mg/kg/injection, schedule: Q01DX001 (ip), vehicle: saline sonified) 96 % of control; (dose: 200.0 mg/kg/injection, schedule: Q01DX001 (ip), vehicle: saline sonified) 98 % of control; (dose: 400.0 mg/kg/injection, schedule: Q01DX001 (ip), vehicle: saline sonified) 94 % of control.
Take `COC(=O)CCC(=O)c1cccc(C)c1`: the T/C is 91 % of control (dose: 200.0 mg/kg/injection, schedule: Q04DX003 (ip), vehicle: acetone) and 89 % of control (dose: 400.0 mg/kg/injection, schedule: Q04DX003 (ip), vehicle: acetone).
Consider `O=c1[nH]cc(F)c(=O)n1C1CCCCO1` (stereo not given), for which the T/C was 121 % of control (dose: 12.5 mg/kg/injection, schedule: Q01DX009 (ip), vehicle: saline); 98 % of control (dose: 12.5 mg/kg/injection, schedule: Q04DX003 (ip), vehicle: saline); 102 % of control (dose: 25.0 mg/kg/injection, schedule: Q04DX003 (ip), vehicle: saline); 156 % of control (dose: 50.0 mg/kg/injection, schedule: Q01DX009 (ip), vehicle: saline); 98 % of control (dose: 50.0 mg/kg/injection, schedule: Q04DX003 (ip), vehicle: saline); 175 % of control and 184 % of control (dose: 100.0 mg/kg/injection, schedule: Q01DX009 (ip), vehicle: saline). Also, where the note is “dose: 100.0 mg/kg/injection, schedule: Q04DX003 (ip), vehicle: saline”, the T/C is 100 % of control.
Take `CN(N=O)c1ccc(CC2CCc3ccccc32)cc1` (stereo not given): the T/C under setting [4] was 93 % of control, the T/C under setting [5] is 98 % of control and the T/C under setting [6] was 101 % of control.
`NS(=O)(=O)c1ccc(NC(=O)Oc2ccc([N+](=O)[O-])cc2)cc1`: the T/C reads like this: under setting [7], 93 % of control; under setting [8], 93 % of control; under setting [9], 101 % of control.
Take `C/C(C#N)=C/c1ccccc1`: the T/C is, setting by setting: (dose: 50.0 mg/kg/injection, schedule: Q01DX009 (ip), vehicle: saline sonified) 108 % of control; (dose: 100.0 mg/kg/injection, schedule: Q01DX009 (ip), vehicle: saline sonified) 105 % of control; under setting [1], 100 % of control; (dose: 200.0 mg/kg/injection, schedule: Q01DX009 (ip), vehicle: saline sonified) 105 % of control; under setting [2], 105 % of control.
As to `Cc1ccc(S(=O)(=O)NC2CCC(C(=O)O)CC2)cc1` (stereo not given), the T/C under setting [4] was 103 % of control, the T/C under setting [5] was 103 % of control and the T/C under setting [6] was 92 % of control.
On to `Nc1cc(=O)c2ncn(C3OC(CO)C(O)C3O)c2[nH]1` (stereo not given), for which the T/C was 98 % of control (dose: 25.0 mg/kg/injection, schedule: Q01DX005 (ip), vehicle: other); 93 % of control (dose: 50.0 mg/kg/injection, schedule: Q01DX005 (ip), vehicle: other); 87 % of control (dose: 100.0 mg/kg/injection, schedule: Q01DX005 (ip), vehicle: other); 106 % of control (dose: 200.0 mg/kg/injection, schedule: Q01DX005 (ip), vehicle: other); 103 % of control (dose: 400.0 mg/kg/injection, schedule: Q01DX005 (ip), vehicle: other).
Regarding `CCOc1ccc(/C=N/NC(=O)c2ccccc2NC(=O)C2CC2)cc1OC`, the T/C runs as follows: under setting [7], 98 % of control; under setting [8], 94 % of control; under setting [9], 94 % of control.
As for `CCCCCCCCCCCCOP(OCCCCCCCCCCCC)OCCCCCCCCCCCC`, the T/C by setting is: (dose: 100.0 mg/kg/injection, schedule: Q04DX003 (ip), vehicle: alcohol) 102 % of control; (dose: 200.0 mg/kg/injection, schedule: Q04DX003 (ip), vehicle: alcohol) 96 % of control; (dose: 400.0 mg/kg/injection, schedule: Q04DX003 (ip), vehicle: alcohol) 98 % of control.
For `CCOC(=O)/C=C(C)/C=C/C=C(/C)CCC=C(C)C`, the T/C (dose: 100.0 mg/kg/injection, schedule: Q04DX002 (ip), vehicle: saline with Tween-80) is 100 % of control; the T/C (dose: 200.0 mg/kg/injection, schedule: Q04DX002 (ip), vehicle: saline with Tween-80) is 100 % of control; the T/C (dose: 400.0 mg/kg/injection, schedule: Q04DX002 (ip), vehicle: saline with Tween-80) was 92 % of control.
Turning to `COC(=O)C(c1ccccc1)C(SCc1ccccc1)c1ccccc1` (stereo not given), the T/C under setting [1] was 103 % of control, the T/C under setting [2] is 95 % of control and the T/C under setting [3] is 98 % of control.
`CCOC(=O)CCC(NC(=O)c1cccc(N(C)C=O)c1)C(=O)OCC` (stereo not given): the T/C was 110 % of control under setting [7]; 100 % of control under setting [1]; 110 % of control under setting [8]; 100 % of control under setting [2]; 113 % of control under setting [9]; 98 % of control under setting [3].
`N#Cc1[nH]nc2ncnc(N)c12`: the T/C is 100 % of control (dose: 6.25 mg/kg/injection, schedule: Q01DX009 (ip), vehicle: saline with Tween-80); 100 % of control under setting [10]; 93 % of control (dose: 25.0 mg/kg/injection, schedule: Q01DX009 (ip), vehicle: saline with Tween-80); 91 % of control and 98 % of control (dose: 50.0 mg/kg/injection, schedule: Q01DX009 (ip), vehicle: saline with Tween-80).
In the case of `CCCCCCCCCCCCCCCC[n+]1ccc(C(N)=O)cc1`, the T/C is, setting by setting: under setting [10], 105 % of control; (dose: 12.5 mg/kg/injection, schedule: Q04DX003 (ip), vehicle: saline with Tween-80) 100 % of control; (dose: 25.0 mg/kg/injection, schedule: Q04DX003 (ip), vehicle: saline with Tween-80) 98 % of control; (dose: 50.0 mg/kg/injection, schedule: Q04DX003 (ip), vehicle: saline with Tween-80) 97 % of control.

Source of the values: PubChem BioAssay AID256 (DTP/NCI, 2004).
